Source: patent US5262521A (SRI International, priority 1991, dated 1993)
Where two headings read alike, the source gives them in different places. *1 amine or outer side, *2 acyl side, *3 side chain or, on linkers, in order; H or OH if unused. Where a SMILES comes first, the peptide text is derived from it. [ ]: non-standard residue; d: D form. The star is where a group is joined. Sta = CC(C)C[C@H](N)[C@@H](O)CC(=O)O; Isovaleryl = CC(C)CC(=O)*; CO = O=C([*:1])[*:2]

Test system: atrial peptide-degrading enzyme (ADE)
Assay: Inhibition of ADE activity (AcAPI production from 50 μM AcAPII, HPLC)
Format: biochemical, bovine
Experimental: The concentration of enzyme and AcAPII were chosen so that approximately 80% of the AcAPII was degraded in the absence of inhibitor. The production of AcAPI was determined by integration of the AcI peak, and percent inhibition by the inhibitors was calculated.
(e.) Enzyme Inhibitor Testing: To further characterize ADE, the extent of inhibition by several known peptidase inhibitors was determined.

[1] = inhibitor 0.1 mM, 50 μM AcAPII, 1 hour, 37° C.
[2] = inhibitor 1 mM, 50 μM AcAPII, 1 hour, 37° C.
[3] = inhibitor 5 mM, 50 μM AcAPII, 1 hour, 37° C.

In the case of `CC(C)C[C@H](NC(=O)[C@H]1O[C@@H]1C(=O)O)C(=O)NCCCCN=C(N)N` (relative stereo) [E64, trans-Epoxysuccinyl-L-leucylamido-(4-guanidino)butane], the “Percent Inhibition of ADE” value [1] is reported as 0%.
With `c1cnc2c(c1)ccc1cccnc12` [1,10-Phenanthroline] the “Inhibition of ADE, in words” value was “inhibited activity to a slightly lesser extent” and the “Percent Inhibition of ADE” value [2] was 72%.
For `CC(C)C[C@H](NC(=O)[C@@H](N)CO)C(=O)N[C@@H](CCCNC(=N)N)C(=O)N[C@@H](CCCNC(=N)N)C(=O)N[C@@H](CO)C(=O)N[C@@H](CO)C(=O)N[C@H](C)C(=O)NCC(=O)N[C@H](C)C(=O)N[C@@H](CC(N)=O)C(=O)N[C@@H](CO)C(=O)N[C@@H](Cc1ccccc1)C(=O)N[C@@H](CCCNC(=N)N)C(=O)N[C@@H](Cc1ccc(O)cc1)C(N)=O` [(I), Ser-Leu-Arg-Arg-Ser-Ser-DAla-Gly-DAla-Asn-Ser-Phe-Arg-Tyr-NH2] (H-SLRRSS[dA]G[dA]NSFRY-NH2), the “% Inhibition At 0.1 mM” value (Table 10) was 46%.
`CC(C)C[C@H](NC(=O)[C@@H](N)CO)C(=O)N[C@@H](CCCNC(=N)N)C(=O)N[C@@H](CCCNC(=N)N)C(=O)N[C@@H](CO)C(=O)N[C@@H](CO)C(=O)N[C@H](C)C(=O)NCC(=O)N[C@H](C)C(=O)N[C@@H](CC(N)=O)C(=O)N[C@@H](CO)C(=O)N[C@H](Cc1ccccc1)C(=O)N[C@@H](CCCNC(=N)N)C(=O)N[C@@H](Cc1ccc(O)cc1)C(N)=O` [(II), Ser-Leu-Arg-Arg-Ser-Ser-DAla-Gly-DAla-Asn-Ser-DPhe-Arg-Tyr-NH2] (H-SLRRSS[dA]G[dA]NS[dF]RY-NH2) was tested, and the “% Inhibition At 0.1 mM” value (Table 10) was 28%.
`CC(C)C[C@H](NC(=O)[C@@H](N)CO)C(=O)N[C@@H](CCCNC(=N)N)C(=O)N[C@@H](CCCNC(=N)N)C(=O)N[C@@H](CO)C(=O)N[C@@H](CO)C(=O)N[C@H](C)C(=O)NCC(=O)N[C@H](C)C(=O)N[C@@H](CC(N)=O)C(=O)N[C@H](CO)C(=O)N[C@@H](Cc1ccccc1)C(=O)N[C@@H](CCCNC(=N)N)C(=O)N[C@@H](Cc1ccc(O)cc1)C(N)=O` [(III), Ser-Leu-Arg-Arg-Ser-Ser-DAla-Gly-DAla-Asn-DSer-Phe-Arg-Tyr-NH2] (H-SLRRSS[dA]G[dA]N[dS]FRY-NH2) was tested, and the “% Inhibition At 0.1 mM” value (Table 10) was 22%.
For `CC(C)C[C@H](NC(=O)[C@@H](N)CO)C(=O)N[C@@H](CCCNC(=N)N)C(=O)N[C@@H](CCCNC(=N)N)C(=O)N[C@@H](CO)C(=O)N[C@@H](CO)C(=O)N[C@H](C)C(=O)NCC(=O)N[C@H](C)C(=O)N[C@@H](CC(N)=O)C(=O)N[C@@H](CS)C(=O)N[C@@H](Cc1ccccc1)C(=O)N[C@@H](CCCNC(=N)N)C(=O)N[C@@H](Cc1ccc(O)cc1)C(N)=O` [(IV), Ser-Leu-Arg-Arg-Ser-Ser-DAla-Gly-DAla-Asn-Cys-Phe-Arg-Tyr-NH2] (H-SLRRSS[dA]G[dA]NCFRY-NH2), the IC50 (Table 10) was 32.5 µM and the “% Inhibition At 0.1 mM” value (Table 10) was 68%.
In the case of `CC(C)C[C@H](NC(=O)[C@@H](N)CO)C(=O)N[C@@H](CCCNC(=N)N)C(=O)N[C@@H](CCCNC(=N)N)C(=O)N[C@@H](CO)C(=O)N[C@@H](CO)C(=O)N[C@H](C)C(=O)NCC(=O)N[C@H](C)C(=O)N[C@@H](CC(N)=O)C(=O)N[C@@H](CS)C(=O)N[C@H](Cc1ccccc1)C(=O)N[C@@H](CCCNC(=N)N)C(N)=O` [(VI), Ser-Leu-Arg-Arg-Ser-Ser-DAla-Gly-DAla-Asn-Cys-DPhe-Arg-NH2] (H-SLRRSS[dA]G[dA]NC[dF]R-NH2), the “% Inhibition At 0.1 mM” value (Table 10) is reported as 74%.
For `CC(C)[C@H](NC(=O)[C@H](CCCNC(=N)N)NC(=O)N[C@@H](Cc1ccccc1)C(=O)O)C(=O)N[C@H](C=O)CCCNC(=N)N` [Antipain] ({Phe-CO}-Arg-Val-Arg-aldehyde), the “Percent Inhibition of ADE” value [1] was 0%.
For `C[C@H](CS)C(=O)N1CCC[C@H]1C(=O)O` [Captopril], the “Inhibition of ADE, in words” value was “slight inhibition” and the “Percent Inhibition of ADE” value (inhibitor 0.2 mM, 50 μM AcAPII, 1 hour, 37° C.) was 33%.
For `CC(C)C[C@H](NC(=O)[C@@H](NC(=O)N[C@@H](Cc1ccccc1)C(=O)O)[C@@H]1CCN=C(N)N1)C(=O)N[C@H](C=O)Cc1ccccc1` [Chymostatin], the “Percent Inhibition of ADE” value [1] was 8%.
With `O=C(O)CN(CCN(CC(=O)O)CC(=O)O)CC(=O)O` [EDTA, Ethylenediamine tetraacetic acid] the “ADE activity after dialysis of the enzyme” value (enzyme dialyzed against 1 mM EDTA) was “totally abolished” and the “Percent Inhibition of ADE” value [3] was 20%.
For `CC(C)C[C@H](NC(=O)N[C@H](C(=O)N[C@@H](CCC(N)=O)C(=O)N[C@@H](C)C=O)[C@@H]1CCNC(=N)N1)C(=O)O` [Elastinal], the “Percent Inhibition of ADE” value [1] was 10%.
With `O=S(=O)(O)c1cc[c]([Hg][OH])cc1` [Hydroxymercuriphenyl sulfonic acid] the “Percent Inhibition of ADE” value [2] was 100%.
In the case of `NC(=O)CI` [Iodoacetamide], the “Percent Inhibition of ADE” value [2] is reported as 10%.
With `O=C(O)CI` [Iodoacetic acid] the “Percent Inhibition of ADE” value was 0.
`CC(=O)N[C@@H](CC(C)C)C(=O)N[C@@H](CC(C)C)C(=O)N[C@H](C=O)CCCNC(=N)N` [Leupeptine] was tested, and the “Inhibition of ADE, in words” value was “slight inhibition” and the “Percent Inhibition of ADE” value [1] was 33%.
`CCN1C(=O)C=CC1=O` [NEM, N-ethylmaleimide] was tested, and the “Inhibition of ADE, in words” value was “inhibited”, the “Percent Inhibition of ADE” value [3] was 97% and the “ADE activity inhibited by” value (text summary of Table 4) was about 100%.
With `O=S(=O)(F)Cc1ccccc1` [PMSF, Phenylmethylsulfonyl fluoride] the “Percent Inhibition of ADE” value [2] was 8%.
For `CC(C)CC(=O)N[C@H](C(=O)N[C@H](C(=O)N[C@@H](CC(C)C)[C@@H](O)CC(=O)N[C@@H](C)C(=O)N[C@@H](CC(C)C)[C@@H](O)CC(=O)O)C(C)C)C(C)C` [Pepstatin] (Isovaleryl-VV[Sta]A[Sta]-OH), the “Percent Inhibition of ADE” value (inhibitor 0.01 mM, 50 μM AcAPII, 1 hour, 37° C.) was 0%.
For `CC(C)C[C@H](NP(=O)(O)O[C@@H]1O[C@@H](C)[C@H](O)[C@@H](O)[C@H]1O)C(=O)N[C@@H](Cc1c[nH]c2ccccc12)C(=O)O` [Phosphoramidon], the “Inhibition of ADE, in words” value was “not inhibited” and the “Percent Inhibition of ADE” value (inhibitor 0.001 mM, 50 μM AcAPII, 1 hour, 37° C.) was 0%.
`O=C(O)c1cc[c]([Hg][Cl])cc1` [p-Chloromercuribenzoate] was tested, and the “Percent Inhibition of ADE” value [2] was 95%.
